# In article PMC5786306, “An AKAP-Lbc-RhoA interaction inhibitor promotes the translocation of aquaporin-2 to the plasma membrane of renal collecting duct principal cells” (PLoS ONE, 2018):
# Tests used:
# [1] = system: Gα12- or Gαq-mediated RhoA activation in HEK293 cells; experiment: Rhotekin pulldown of active RhoA in HEK293 cells; format: cell-based, human; settings: 50 μM
# Protocol: (A) Full length AKAP-Lbc (AKAP13) and the indicated GEFs were transiently expressed in HEK293 cells. […] (B) Scaff10 inhibits Gα12- but not Gαq-mediated RhoA activation. The indicated Gα12 and Gαq-mutants were transiently co-expressed with AKAP-Lbc and p63RhoGEF in HEK293 cells as indicated. The cells were left untreated or incubated with Scaff10 (50 μM). The fraction of active RhoA was determined using Rhotekin pulldown assays. Shown is one representative out of three experiments. All GEF constructs were in pCMV3a and Myc-tagged (30 ng per transfection). Expression of AKAP-Lbc, LARG and PDZ-RhoGEF is shown in Fig 7 of the main manuscript. […] Lower panel: Corresponding values of fluorescence to upper panel. […] Lower panel: Corresponding values of fluorescence to upper panel. (B) F norm = normalised fluorescence (fluoresence steady state/fluorescence initial state) indicated in ‰. […] The viability of the indicated cells was determined using a CellTiter-Glo®Luminescent Cell Viability Assay (Promega, Wisconsin, USA) according to the manufacturer's instructions. The assay is based on the quantification of ATP as an indicator of metabolically active cells. […] Viability was assessed after 1 and 24 h incubation with Scaff10-8 in the indicated concentrations. An equal volume of CellTiter-Glo Reagent was added, plates were shaken and luminescence monitored over time with the plates held at 22°C. […]
# GST = GST (Schistosoma japonicum, UniProt P08515); experiment: ITC control with GST alone; format: binding
# Protocol: ITC measurements were essentially carried out as previously described. The stabilizing RhoA mutant F25N [41] was purified as a GST-RhoA fusion in its GDP-bound form (final gel filtration purification step in 20 mM HEPES, pH 7.5, 150 mM NaCl, 2 mM DTT, 50 μM GDP). In order to exchange GDP against GTPγS, GST-RhoA loaded with GDP was incubated for 20 min in ITC nucleotide exchange buffer (50 mM HEPES, pH 7.5, 20 mM EDTA) at 25°C followed by three dilution and concentration steps in Amicon tubes (10,000 MWCO) using ITC dialysis buffer (50 mM HEPES, pH 7.4, 150 mM NaCl, 5 mM MgCl2, 2 mM β-mercaptoethanol). The nucleotide-loading state was confirmed by HPLC. All proteins used in ITC measurements were dialyzed overnight against ITC dialysis buffer. Protein concentrations were determined with NanoDrop ND-1000. GDP or GTPγS (final concentration 2 mM) and DMSO (2%) were added to the proteins prior to the ITC measurements. Scaff10-8 was dissolved in the same buffer (including 2% DMSO and 2 mM GDP or GTPγS). ITC measurements were performed on a VP-ITC (GE Healthcare, München, DE) at 15°C. Titrations were conducted using 14.8 μM Scaff10-8 in the cell and 235 μM (GST control), 222 μM (GST-RhoA, GDP-bound) or 210 μM (GST-RhoA, GTPγS-bound) in the syringe. The cell was stirred at 351 rpm and a total of 27 x 10 μl injections were added to the cell, separated by 240 s of equilibration. […]
# Sequence of GST (P08515 whole entry, the tested form may be a part): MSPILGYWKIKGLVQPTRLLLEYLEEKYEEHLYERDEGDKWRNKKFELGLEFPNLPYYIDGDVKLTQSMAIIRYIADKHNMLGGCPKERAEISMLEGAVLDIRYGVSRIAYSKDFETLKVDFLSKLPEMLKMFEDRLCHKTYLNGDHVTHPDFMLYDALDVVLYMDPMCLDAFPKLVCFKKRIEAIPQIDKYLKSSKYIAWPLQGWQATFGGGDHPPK
SMILES,RhoA activation by constitutively active G12 (G12QL) with AKAP-Lbc [1],RhoA activation through constitutively active Gq (GqRC) [1],binding to GST control (GST)
"COc1ccc(-c2coc3cc4oc(=O)c(C)c(C)c4cc23)cc1 [Scaff10, 3-(4-Methoxyphenyl)-5,6-dimethyl-furo[3,2-g]chromen-7-one]",abolished this activation,did not affect,
"COc1ccc(-c2coc3cc4oc(=O)c(CCC(=O)O)c(C)c4cc23)cc1 [Scaff10-8, 3-[3-(4-Methoxyphenyl)-5-methyl-7-oxo-furo[3,2-g]chromen-6-yl] propanoic acid]",,,did not bind
